The subject of one assay is U937 cells. Kind of assay: Escape velocity of treated and untreated leukemia cells. Format: cell-based. Particulars: PMA 5 ug/mL, 37° C., treated for 6 hours. An excerpt: Separation By Refractive Index—Polystyrene, polymethylmethacrylate and silica particles of similar size (˜5 micrometer diameter, Bangs Labs) and refractive indexes of 1.59, 1.49 and 1.37, respectively, were sorted by moving optical gradient fields. Observed escape velocities for polystyrene, PMMA and silica were 44, 47 and 32 micrometers/second, respectively. Briefly, a particle is aligned in the fringe and the fringes are moved at increasing speed until the particle slips. […] It will be appreciated by those skilled in the art that the absolute value of the escape velocity will differ depending upon system conditions, e.g., laser power. The numerical results provided herein are meant to provide measured data for the system actually used, and are not to be considered a limitation on the values which might exist in a different system.
PMA was dissolved in ethanol at a concentration of 5 mg/mL. 3 mls of U937 cells grown in RPMI 1640 media with supplements were removed from the culture flask and 1 ml was placed into each of three eppendorf tubes. Cells from the first tube were pelleted for 4 minutes at 10,000 rpm and resuspended in 250 uL PBS/1% BSA buffer for escape velocity measurements. PMA was added to the remaining two tubes of U937 cells to a final concentration of 5 ug/mL. These tubes were vortexed and placed in a 37° C. water bath for either one hour or six hours. […]

The next assay concerns K562 Cells. Kind of assay: Escape velocity of cells in a moving optical gradient field (1064 system, CYTOP coated coverslips). Format: cell-based. Particulars: K562 cells (chronic myelogenous leukemia, lymphoblast), 26 Hr. Taxol treatment; untreated K562 10.0 +/− 0.7. An excerpt:
Certain of the data reported herein were generated with the following setup. Optical gradient fields were generated using a Michelson interferometer and either a 150 mW, 812 nm laser (812 system) or a 2.5 W, 1064 nm laser (1064 system). The 812 system used a 100× (1.25 NA) oil immersion lens to focus the fringe pattern and to visualize the sample. The 1064 system used a 20× objective to focus the fringes and a 60× objective to visualize the sample. In general the sample cell was a coated microscope slide and/or coverslip that was sealed with Vaseline. Coverslip spacers controlled the height of the cell at approximately 150 micrometers
Separation By Refractive Index—Polystyrene, polymethylmethacrylate and silica particles of similar size (˜5 micrometer diameter, Bangs Labs) and refractive indexes of 1.59, 1.49 and 1.37, respectively, were sorted by moving optical gradient fields. Observed escape velocities for polystyrene, PMMA and silica were 44, 47 and 32 micrometers/second, respectively. […] The numerical results provided herein are meant to provide measured data for the system actually used, and are not to be considered a limitation on the values which might exist in a different system.
Escape velocities were measured using a gradient field generated by the 1064 system on CYTOP coated coverslips.

The results in this text go back to US6815664B2, “Method for separation of particles” (Genoptix, Inc., priority 2001, dated 2004).

Consider `CCCCCCCCCCCCCC(=O)O[C@@H]1[C@@H](C)[C@@]2(O)[C@@H](C=C(CO)C[C@]3(O)C(=O)C(C)=C[C@@H]23)[C@@H]2C(C)(C)[C@]12OC(C)=O` [PMA], for which, in the assay with U937 cells, the “escape velocity as compared to the untreated cells” value was “significantly higher escape velocity”.

As to `CC(=O)O[C@H]1C(=O)[C@@]2(C)[C@H]([C@H](OC(=O)c3ccccc3)[C@]3(O)C[C@H](OC(=O)[C@H](O)[C@@H](NC(=O)c4ccccc4)c4ccccc4)C(C)=C1C3(C)C)[C@]1(OC(C)=O)CO[C@@H]1C[C@@H]2O` [Taxol], the “Escape Velocity” value in the assay with K562 Cells is recorded as 8.2 +/− 0.4 um/sec.
